Several values for one entry are separate records, joined by “and”; a condition that tells them apart may be missing. Equal entries are not always repeated. Toxic doses and inconclusive results are not listed. The calls were made as follows: active = survival T/C of 150% or more; inactive = T/C below 125% in these data.
System: CD2F1 mice, L1210 leukemia ip, survival T/C
Test: NCI In Vivo Anticancer Drug Screen. Data for tumor model L1210 Leukemia (intraperitoneal) in CD2F1 (CDF1) mice
Settings: higher = longer survival
Procedure, shortened: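 Tumor-bearing mice (transplanted tumor) were split into treated and vehicle control groups, and the measured endpoint of each treated group was divided by that of its vehicle controls.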

[1] = endpoint: mean survival time, dose: 100.0 mg/kg/injection, schedule: Q01DX009 (ip), vehicle: other
[2] = endpoint: mean survival time, dose: 100.0 mg/kg/injection, schedule: Q01DX009 (ip), vehicle: saline with Tween-80
[3] = endpoint: mean survival time, dose: 200.0 mg/kg/injection, schedule: Q01DX009 (ip), vehicle: saline with Tween-80
[4] = endpoint: mean survival time, dose: 400.0 mg/kg/injection, schedule: Q01DX009 (ip), vehicle: saline with Tween-80
[5] = endpoint: mean survival time, dose: 100.0 mg/kg/injection, schedule: Q04DX003 (ip), vehicle: saline with Tween-80
[6] = endpoint: mean survival time, dose: 200.0 mg/kg/injection, schedule: Q04DX003 (ip), vehicle: saline with Tween-80
[7] = endpoint: mean survival time, dose: 400.0 mg/kg/injection, schedule: Q04DX003 (ip), vehicle: saline with Tween-80
[8] = endpoint: mean survival time, dose: 100.0 mg/kg/injection, schedule: Q04DX002 (ip), vehicle: saline with Tween-80
[9] = endpoint: mean survival time, dose: 100.0 mg/kg/injection, schedule: Q04DX003 (ip), vehicle: Klucel (hydroxypropylcellulose) (HPC)
[10] = endpoint: mean survival time, dose: 200.0 mg/kg/injection, schedule: Q04DX003 (ip), vehicle: Klucel (hydroxypropylcellulose) (HPC)
[11] = endpoint: mean survival time, dose: 100.0 mg/kg/injection, schedule: Q01DX001 (ip), vehicle: saline with Tween-80
[12] = endpoint: mean survival time, dose: 200.0 mg/kg/injection, schedule: Q01DX001 (ip), vehicle: saline with Tween-80
[13] = endpoint: mean survival time, dose: 400.0 mg/kg/injection, schedule: Q01DX001 (ip), vehicle: saline with Tween-80
[14] = endpoint: mean survival time, dose: 100.0 mg/kg/injection, schedule: Q01DX009 (ip), vehicle: saline
[15] = endpoint: mean survival time, dose: 25.0 mg/kg/injection, schedule: Q04DX003 (ip), vehicle: saline with Tween-80

Measured: T/C

CN(C)C=Nc1ccc([N+](=O)[O-])c2ccccc12
inactive: [1] 105 % of control | endpoint: mean survival time, dose: 200.0 mg/kg/injection, schedule: Q01DX009 (ip), vehicle: other 103 % of control | endpoint: mean survival time, dose: 400.0 mg/kg/injection, schedule: Q01DX009 (ip), vehicle: other 96 % of control

OCCOc1cccc(OCCO)c1
inactive: [2] 96 % of control | [3] 96 % of control | [4] 115 % of control

O=C(O)/C=C/C(=O)Nc1cccc2cccnc12
inactive: [2] 93 % of control | [5] 98 % of control | [3] 102 % of control | [6] 93 % of control | [4] 100 % of control | [7] 98 % of control

COc1c(NC(=O)Nc2ccccc2Cl)cccc1[N+](=O)[O-]
inactive: endpoint: mean survival time, dose: 25.0 mg/kg/injection, schedule: Q04DX002 (ip), vehicle: saline with Tween-80 87 % of control | endpoint: mean survival time, dose: 50.0 mg/kg/injection, schedule: Q04DX002 (ip), vehicle: saline with Tween-80 90 % of control | [8] 90 % of control

OC1CCCC2CCC[N-]C12.OC1CCCC2CCC[N-]C12.[Mn+2] (stereo not drawn)
inactive: endpoint: mean survival time, dose: 25.0 mg/kg/injection, schedule: Q01DX009 (ip), vehicle: Klucel (hydroxypropylcellulose) (HPC) 104 % of control | endpoint: mean survival time, dose: 50.0 mg/kg/injection, schedule: Q01DX009 (ip), vehicle: Klucel (hydroxypropylcellulose) (HPC) 115 % of control | endpoint: mean survival time, dose: 100.0 mg/kg/injection, schedule: Q01DX009 (ip), vehicle: Klucel (hydroxypropylcellulose) (HPC) 104 % of control

c1cc[c]([Ge]([O][Ge]([c]2ccccc2)([c]2ccccc2)[c]2ccccc2)([c]2ccccc2)[c]2ccccc2)cc1
inactive: endpoint: mean survival time, dose: 50.0 mg/kg/injection, schedule: Q04DX003 (ip), vehicle: Klucel (hydroxypropylcellulose) (HPC) 96 % of control | [9] 96 % of control | [10] 96 % of control

c1ccc2c(c1)[nH]c1c2cc[n+]2cc3c(cc12)CCCC3
inactive: endpoint: mean survival time, dose: 5.0 mg/kg/injection, schedule: Q01DX001 (ip), vehicle: saline 100 % of control | endpoint: mean survival time, dose: 10.0 mg/kg/injection, schedule: Q01DX001 (ip), vehicle: saline 101 % of control | endpoint: mean survival time, dose: 20.0 mg/kg/injection, schedule: Q01DX001 (ip), vehicle: saline 106 % of control | endpoint: mean survival time, dose: 40.0 mg/kg/injection, schedule: Q01DX001 (ip), vehicle: saline 109 % of control

CC(=O)Nc1c(F)c(F)c(F)c(F)c1F
inactive: [11] 102 % of control | [12] 95 % of control | [13] 94 % of control

COc1cc2c(cc1OC)C13CCN4CC5=CCOC6CC(=O)N2C1C6C5CC43 (stereo not drawn) (tested in a mixture with another compound)
inactive: [11] 110 % of control | [14] 93 % of control

Cc1cc(C(C)(C)C)c(Oc2ccc([N+](=O)[O-])cc2S(=O)(=O)O)c(C(C)(C)C)c1
inactive: [5] 102 % of control | [6] 101 % of control | [7] 92 % of control

COC(=O)Nc1cccc(OS(=O)(=O)N(C)C)c1
inactive: [5] 103 % of control

CCOC(=O)/C=C/C(=O)N1CCN(C(=O)/C=C/C(=O)OCC)C(C)C1 (stereo not drawn)
inactive: endpoint: median survival time, dose: 25.0 mg/kg/injection, schedule: Q01DX009 (ip), vehicle: Klucel (hydroxypropylcellulose) (HPC) 106 % of control | endpoint: median survival time, dose: 50.0 mg/kg/injection, schedule: Q01DX009 (ip), vehicle: Klucel (hydroxypropylcellulose) (HPC) 110 % of control | endpoint: median survival time, dose: 100.0 mg/kg/injection, schedule: Q01DX009 (ip), vehicle: Klucel (hydroxypropylcellulose) (HPC) 109 % of control | endpoint: median survival time, dose: 200.0 mg/kg/injection, schedule: Q01DX009 (ip), vehicle: Klucel (hydroxypropylcellulose) (HPC) 109 % of control | endpoint: median survival time, dose: 400.0 mg/kg/injection, schedule: Q01DX009 (ip), vehicle: Klucel (hydroxypropylcellulose) (HPC) 109 % of control

COc1cccc2c1C(=O)c1c(O)c3c(c(O)c1C2=O)C[C@@](O)(C(=O)CO)C[C@@H]3OC1CC(NC=O)C(O)C(C)O1 (stereo partly drawn)
inactive: endpoint: mean survival time, dose: 6.25 mg/kg/injection, schedule: Q04DX003 (ip), vehicle: water 93 % of control | endpoint: mean survival time, dose: 12.5 mg/kg/injection, schedule: Q04DX003 (ip), vehicle: water 93 % of control | endpoint: mean survival time, dose: 25.0 mg/kg/injection, schedule: Q04DX003 (ip), vehicle: water 102 % of control | endpoint: mean survival time, dose: 50.0 mg/kg/injection, schedule: Q04DX003 (ip), vehicle: water 112 % of control | endpoint: mean survival time, dose: 100.0 mg/kg/injection, schedule: Q04DX003 (ip), vehicle: water 114 % of control

COc1ccc2c(ccc3nc(C)[nH]c(=O)c32)c1
inactive: endpoint: mean survival time, dose: 25.0 mg/kg/injection, schedule: Q01DX001 (ip), vehicle: Klucel (hydroxypropylcellulose) (HPC) 102 % of control | endpoint: mean survival time, dose: 50.0 mg/kg/injection, schedule: Q01DX001 (ip), vehicle: Klucel (hydroxypropylcellulose) (HPC) 94 % of control | endpoint: mean survival time, dose: 100.0 mg/kg/injection, schedule: Q01DX001 (ip), vehicle: Klucel (hydroxypropylcellulose) (HPC) 90 % of control

COc1ccc(OC)c(NC(=O)N2CCCC(C)C2)c1 (stereo not drawn)
inactive: endpoint: mean survival time, dose: 88.0 mg/kg/injection, schedule: Q01DX009 (ip), vehicle: other 95 % of control | [1] 124 % of control | endpoint: mean survival time, dose: 133.0 mg/kg/injection, schedule: Q01DX009 (ip), vehicle: other 95 % of control | endpoint: mean survival time, dose: 300.0 mg/kg/injection, schedule: Q01DX009 (ip), vehicle: other 95 % of control

Cc1cc(O)c2c(c1O)C(=O)c1cccc(O)c1C2=O
inactive: endpoint: mean survival time, dose: 0.75 mg/kg/injection, schedule: Q01DX009 (ip), vehicle: Klucel (hydroxypropylcellulose) (HPC) 103 % of control | endpoint: mean survival time, dose: 1.5 mg/kg/injection, schedule: Q01DX009 (ip), vehicle: Klucel (hydroxypropylcellulose) (HPC) 98 % of control | endpoint: mean survival time, dose: 3.0 mg/kg/injection, schedule: Q01DX009 (ip), vehicle: Klucel (hydroxypropylcellulose) (HPC) 101 % of control | endpoint: mean survival time, dose: 6.0 mg/kg/injection, schedule: Q01DX009 (ip), vehicle: Klucel (hydroxypropylcellulose) (HPC) 113 % of control

COc1cc(OC)c2c(c1Cl)OCC2=O
inactive: [2] 91 % of control | [5] 103 % of control | [3] 91 % of control | [6] 94 % of control | [7] 97 % of control

c1cncc(-c2nc3ccccc3s2)c1
inactive: [9] 103 % of control | [10] 100 % of control | endpoint: mean survival time, dose: 400.0 mg/kg/injection, schedule: Q04DX003 (ip), vehicle: Klucel (hydroxypropylcellulose) (HPC) 100 % of control

O=C1C(Cl)=C(NCc2ccc(Cl)cc2)C(=O)c2ccccc21
inactive: [15] 102 % of control | endpoint: mean survival time, dose: 50.0 mg/kg/injection, schedule: Q04DX003 (ip), vehicle: saline with Tween-80 91 % of control | [5] 91 % of control

O=C(O)/C=C/C(=O)NCc1ccccc1
inactive: [2] 104 % of control | [3] 94 % of control | [4] 98 % of control

CC[N+](CC)=c1ccc2nc3c(cc(N)c4ccccc43)oc-2c1
inactive: endpoint: mean survival time, dose: 6.25 mg/kg/injection, schedule: Q01DX009 (ip), vehicle: saline sonified 97 % of control | endpoint: mean survival time, dose: 6.25 mg/kg/injection, schedule: Q04DX003 (ip), vehicle: saline with Tween-80 101 % of control | endpoint: mean survival time, dose: 12.5 mg/kg/injection, schedule: Q01DX009 (ip), vehicle: saline sonified 104 % of control | endpoint: mean survival time, dose: 12.5 mg/kg/injection, schedule: Q04DX003 (ip), vehicle: saline with Tween-80 101 % of control | [15] 98 % of control

O=CNc1ccc2c(c1)C(Br)c1ccccc1-2 (stereo not drawn)
inactive: [2] 93 % of control | [5] 97 % of control | [6] 100 % of control | [7] 88 % of control

COC(=O)c1ccncc1
inactive: [14] 102 % of control | endpoint: mean survival time, dose: 200.0 mg/kg/injection, schedule: Q01DX009 (ip), vehicle: saline 108 % of control | endpoint: mean survival time, dose: 400.0 mg/kg/injection, schedule: Q01DX009 (ip), vehicle: saline 100 % of control

Nc1ccc(-c2ccc(C(=O)O)cc2)cc1
inactive: [11] 104 % of control and 108 % of control | [8] 101 % of control and 107 % of control | [12] 93 % of control and 98 % of control | endpoint: mean survival time, dose: 200.0 mg/kg/injection, schedule: Q04DX002 (ip), vehicle: saline with Tween-80 95 % of control and 96 % of control | endpoint: mean survival time, dose: 400.0 mg/kg/injection, schedule: Q04DX002 (ip), vehicle: saline with Tween-80 87 % of control

Oc1ccc2ccccc2c1NC(=S)Nc1ccccc1
inactive: endpoint: mean survival time, dose: 100.0 mg/kg/injection, schedule: Q04DX002 (ip), vehicle: Klucel (hydroxypropylcellulose) (HPC) 97 % of control | endpoint: mean survival time, dose: 200.0 mg/kg/injection, schedule: Q04DX002 (ip), vehicle: Klucel (hydroxypropylcellulose) (HPC) 93 % of control | endpoint: mean survival time, dose: 400.0 mg/kg/injection, schedule: Q04DX002 (ip), vehicle: Klucel (hydroxypropylcellulose) (HPC) 93 % of control

CC1CC(C)(C)CC(=O)O1 (stereo not drawn)
inactive: endpoint: mean survival time, dose: 75.0 mg/kg/injection, schedule: Q01DX001 (ip), vehicle: saline 101 % of control

O=c1c2ccccc2sc2c1ccc1ccccc12
inactive: [11] 100 % of control | [12] 101 % of control | [13] 94 % of control
